In article PMC7845594, “Novel Immune Modulators Enhance Caenorhabditis elegans Resistance to Multiple Pathogens” (mSphere, 2021):
Where “and” joins values, the source holds several entries; their conditions need not be identical. Equal entries are not always repeated.

Experiments:
[1] = test system: glp-4(bn2) worms exposed to methicillin-resistant S. aureus strain MRSA131; assay: S. aureus infection assay (liquid); assay type: in vivo, Caenorhabditis elegans; details: glp-4(bn2) worms, 96 h; ± 95% confidence interval
Experimental: Enterococcus faecalis and Staphylococcus aureus are Gram-positive bacterial species frequently responsible for nosocomial infections ([24], [25]). These bacterial species readily infect C. elegans and liquid-based pathogenesis models have been developed for each ([26][–][28]). Sterile, young adult glp-4(bn2) worms were incubated with either E. faecalis or S. aureus and various concentrations of the five compounds. […] Importantly, P. aeruginosa, E. faecalis, and S. aureus use very different mechanisms to kill C. elegans (pyoverdine-mediated mitochondrial damage, gelatinase-mediated damage to the colonized intestine, and multi-toxin-mediated intestinal effacement and damage, respectively) ([29][–][33]). The ability of these compounds to rescue against multiple pathogens that utilize a diverse set of virulence factors and mechanisms of pathogenesis further supports the idea that at least a portion of these compounds’ activity is mediated by stimulating innate immunity.
FIG 2 A subset of LK molecules rescue against E. faecalis and S. aureus. […] Compounds were serially diluted 2-fold, and young adult glp-4(bn2) worms were incubated with the pathogen for 80 h (E. faecalis) or 96 h (S. aureus). The concentrations shown are based on the mean value for at least three replicates. (B and C) Percentages of dead C. elegans after exposure to E. faecalis (B) or S. aureus (C). A representative biological replicate is shown. Each condition included at least six wells per replicate, each well contained approximately 20 worms. Three biological replicates were performed. *, P < 0.05; **, P < 0.01; ***, P < 0.001. P values were calculated using Student’s t test. Error bars represent the standard error of the mean.
The S. aureus killing assay was performed as previously described with some changes ([26]). A single colony was used to inoculate a 5-ml aerobic culture of TSB. The following day, 100 µl of this culture was used to inoculate a second 10 ml of TSB culture wrapped with parafilm. Then, 384-well plates were made containing 10% TSB, and S. aureus from the second culture was resuspended in S Basal medium to a final OD of 0.04. Compounds were then serially diluted in a DMSO-S Basal solution to achieve the desired concentration in the wells with a 1% DMSO final concentration for all compounds. After 5 days, the worms were transferred to new plates using a 0.05% Tween solution to prevent S. aureus biofilm background fluorescence from obscuring dead worms. Subsequent washing, staining, imaging, and image analysis were performed identically to Pseudomonas liquid killing. EC values were defined as the minimum concentration that provided statistically significant rescue. At least three biological replicates were performed.

[2] = test system: C. elegans host defense pathway genes; assay: nanoString expression of 115 immune- and stress-responsive genes; details: 100 μM LK molecules, 16 h
Experimental: The ratio of MIC to EC was determined for each of the 69 compounds.
Analysis of the expression of 115 immune- and stress-responsive genes using nanoString technology. Download Table S1, XLSX file, 0.02 MB.
For nanoString-based (nanoString Technologies, Seattle, WA) experiments, 2,000 wild-type, young adult worms were exposed to 100 μM LK molecules or DMSO control in S Basal medium in 6-well plates for 16 h. RNA purification and gene expression analysis were performed according to nanoString guidelines. Two biological replicates were tested for each condition.

COC(=O)/C=C/C(=O)Nc1ccccc1 [LK32]
S. aureus EC [1]: > 64 µM
B0024.4 expression, induction [2]: 2.44 fold
C02B4.2 nhr-17 expression, induction [2]: 5.68 fold
C06B3.7 expression, induction [2]: 4.23 fold
C07G3.2 irg-1 expression, induction [2]: 2.20 fold
C12C8.1 hsp-70 expression, induction [2]: 3.77 fold
C15F1.7 sod-1 expression, induction [2]: 4.46 fold
C29F7.2 expression, induction [2]: 2.80 fold
C31A11.5 oac-6 expression, induction [2]: 4.01 fold
C32D5.12 expression, induction [2]: 3.70 fold
C32H11.1 expression, induction [2]: 1.40 fold
C32H11.3 expression, induction [2]: 2.32 fold
C34G6.4 pgp-2 expression, induction [2]: 1.90 fold
C37C3.10 expression, induction [2]: 4.08 fold
C37H5.8 hsp-6 expression, induction [2]: 3.96 fold
C49G7.5 irg-2 expression, induction [2]: 4.83 fold
F08F8.5 numr-1 expression, induction [2]: 8.48 fold
F08H9.4 expression, induction [2]: 1.80 fold
F14F9.3 expression, induction [2]: 4.80 fold
F22B5.4 expression, induction [2]: 3.08 fold
F22H10.2 expression, induction [2]: 3.76 fold
F26A3.4 expression, induction [2]: 4.23 fold
F35E8.11 cdr-1 expression, induction [2]: 3.13 fold
F35G2.4 phy-2 expression, induction [2]: 4.53 fold
F37B12.2 gcs-1 expression, induction [2]: 7.02 fold
F43E2.8 hsp-4 expression, induction [2]: 2.75 fold
F44E5.5 expression, induction [2]: 3.34 fold
F49F1.6 expression, induction [2]: 2.28 fold
F49F1.7 expression, induction [2]: 2.35 fold
F49H6.13 expression, induction [2]: 6.69 fold
F54B8.4 expression, induction [2]: 2.74 fold
F55G11.2 expression, induction [2]: 3.21 fold
F59A7.1 clec-206 expression, induction [2]: 3.26 fold
F59B10.4 expression, induction [2]: 3.51 fold
H12D21.1 nspa-1 expression, induction [2]: 52.37 fold
H23N18.1 ugt-13 expression, induction [2]: 8.50 fold
H23N18.3 ugt-8 expression, induction [2]: 18.61 fold
K05B2.4 expression, induction [2]: 1.82 fold
K08F4.7 gst-4 expression, induction [2]: 18.20 fold
K09A9.1 nipi-3 expression, induction [2]: 4.75 fold
K10D11.2 expression, induction [2]: 2.89 fold
K10G4.3 expression, induction [2]: 2.75 fold
R03D7.6 gst-5 expression, induction [2]: 46.52 fold
R08H2.1 dhs-23 expression, induction [2]: 2.72 fold
R10E8.3 expression, induction [2]: 7.07 fold
T19D12.3 expression, induction [2]: 9.28 fold
T19H12.1 ugt-9 expression, induction [2]: 14.98 fold
T21E8.1 pgp-6 expression, induction [2]: 2.05 fold
T22B7.3 expression, induction [2]: 6.13 fold
T24C4.4 expression, induction [2]: 3.75 fold
T24E12.5 expression, induction [2]: 2.28 fold
T27E4.3 hsp-16.48 expression, induction [2]: 5.22 fold
T27E4.8 hsp-16.1 expression, induction [2]: 4.29 fold
T27F6.8 expression, induction [2]: 5.12 fold
T28C12.4 expression, induction [2]: 9.85 fold
W02D9.10 expression, induction [2]: 4.35 fold
Y22D7AL.5 hsp-60 expression, induction [2]: 4.03 fold
Y38E10A.15 nspe-7 expression, induction [2]: 2.18 fold
Y46H3A.2 hsp-16.41 expression, induction [2]: 4.09 fold
Y46H3A.3 hsp-16.2 expression, induction [2]: 4.04 fold
Y56A3A.33 expression, induction [2]: 4.81 fold
Y58A7A.5 expression, induction [2]: 8.58 fold
ZC376.7 atfs-1 expression, induction [2]: 5.61 fold
ZC443.6 ugt-16 expression, induction [2]: 3.20 fold
ZK697.6 gst-21 expression, induction [2]: 2.57 fold

CNC(=O)Oc1c(Br)cc2sc(=O)oc2c1Br [LK34]
S. aureus EC [1]: 42.7 µM and 42.7 ± 11.4 µM
B0024.4 expression, induction [2]: 0.79 fold
C02B4.2 nhr-17 expression, induction [2]: 1.60 fold
C03G6.15 cyp-35A2 expression, induction [2]: 2.32 fold
C06B3.3 cyp-35C1 expression, induction [2]: 2.40 fold
C06B3.7 expression, induction [2]: 2.34 fold
C07G3.2 irg-1 expression, induction [2]: 2.14 fold
C12C8.1 hsp-70 expression, induction [2]: 2.02 fold
C15F1.7 sod-1 expression, induction [2]: 2.23 fold
C29F7.2 expression, induction [2]: 1.42 fold
C31A11.5 oac-6 expression, induction [2]: 3.81 fold
C32D5.12 expression, induction [2]: 2.84 fold
C32H11.1 expression, induction [2]: 5.22 fold
C32H11.3 expression, induction [2]: 4.04 fold
C34G6.4 pgp-2 expression, induction [2]: 1.78 fold
C37C3.10 expression, induction [2]: 2.56 fold
C37H5.8 hsp-6 expression, induction [2]: 2.28 fold
C49G7.5 irg-2 expression, induction [2]: 2.61 fold
F08F8.5 numr-1 expression, induction [2]: 3.73 fold
F08H9.4 expression, induction [2]: 2.08 fold
F14F9.3 expression, induction [2]: 2.72 fold
F22B5.4 expression, induction [2]: 0.86 fold
F22H10.2 expression, induction [2]: 1.72 fold
F26A3.4 expression, induction [2]: 1.09 fold
F35E8.11 cdr-1 expression, induction [2]: 3.15 fold
F35G2.4 phy-2 expression, induction [2]: 1.71 fold
F37B12.2 gcs-1 expression, induction [2]: 4.32 fold
F43E2.8 hsp-4 expression, induction [2]: 2.24 fold
F44E5.5 expression, induction [2]: 1.49 fold
F49F1.6 expression, induction [2]: 1.85 fold
F49F1.7 expression, induction [2]: 3.64 fold
F49H6.13 expression, induction [2]: 2.55 fold
F54B8.4 expression, induction [2]: 1.78 fold
F55G11.2 expression, induction [2]: 1.39 fold
F59A7.1 clec-206 expression, induction [2]: 2.12 fold
F59B10.4 expression, induction [2]: 1.89 fold
H12D21.1 nspa-1 expression, induction [2]: 39.17 fold
H23N18.1 ugt-13 expression, induction [2]: 2.95 fold
H23N18.3 ugt-8 expression, induction [2]: 5.59 fold
K05B2.4 expression, induction [2]: 3.62 fold
K07C6.3 cyp-35B2 expression, induction [2]: 4.00 fold
K07G6.4 cyp-35B1 expression, induction [2]: 2.31 fold
K08F4.7 gst-4 expression, induction [2]: 9.69 fold
K09A9.1 nipi-3 expression, induction [2]: 1.52 fold
K09D9.2 cyp-35A3 expression, induction [2]: 3.13 fold
K10D11.2 expression, induction [2]: 1.97 fold
K10G4.3 expression, induction [2]: 2.74 fold
R03D7.6 gst-5 expression, induction [2]: 9.49 fold
R08H2.1 dhs-23 expression, induction [2]: 3.44 fold
R10E8.3 expression, induction [2]: 2.60 fold
T19D12.3 expression, induction [2]: 3.00 fold
T19H12.1 ugt-9 expression, induction [2]: 2.48 fold
T21E8.1 pgp-6 expression, induction [2]: 2.62 fold
T22B7.3 expression, induction [2]: 1.84 fold
T24C4.4 expression, induction [2]: 2.67 fold
T24E12.5 expression, induction [2]: 4.33 fold
T27E4.3 hsp-16.48 expression, induction [2]: 1.73 fold
T27E4.8 hsp-16.1 expression, induction [2]: 1.82 fold
T27F6.8 expression, induction [2]: 1.45 fold
T28C12.4 expression, induction [2]: 1.59 fold
W02D9.10 expression, induction [2]: 1.15 fold
Y22D7AL.5 hsp-60 expression, induction [2]: 1.77 fold
Y38E10A.15 nspe-7 expression, induction [2]: 2.14 fold
Y46H3A.2 hsp-16.41 expression, induction [2]: 2.00 fold
Y46H3A.3 hsp-16.2 expression, induction [2]: 1.72 fold
Y56A3A.33 expression, induction [2]: 1.77 fold
Y58A7A.5 expression, induction [2]: 3.10 fold
ZC376.7 atfs-1 expression, induction [2]: 1.86 fold
ZC443.6 ugt-16 expression, induction [2]: 2.76 fold
ZK697.6 gst-21 expression, induction [2]: 2.66 fold
